The source made the active and inactive calls.
Experiments:
[1] = target: T1, Tyrosine-protein phosphatase non-receptor type 7 (Homo sapiens, UniProt P35236); format: functional
T1 sequence (P35236 whole entry): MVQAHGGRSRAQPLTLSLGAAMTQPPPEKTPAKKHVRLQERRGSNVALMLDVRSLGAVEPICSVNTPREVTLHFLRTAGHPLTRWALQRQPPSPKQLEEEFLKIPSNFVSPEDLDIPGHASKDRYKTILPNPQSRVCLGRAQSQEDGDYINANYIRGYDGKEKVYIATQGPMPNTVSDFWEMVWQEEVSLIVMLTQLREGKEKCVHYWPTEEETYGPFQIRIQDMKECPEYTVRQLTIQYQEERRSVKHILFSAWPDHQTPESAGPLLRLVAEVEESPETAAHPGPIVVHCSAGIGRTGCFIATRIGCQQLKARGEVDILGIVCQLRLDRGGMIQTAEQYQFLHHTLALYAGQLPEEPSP

[2] = target: T2, Tyrosine-protein phosphatase non-receptor type 22 (Homo sapiens, UniProt Q9Y2R2); format: functional
T2 sequence (Q9Y2R2 whole entry): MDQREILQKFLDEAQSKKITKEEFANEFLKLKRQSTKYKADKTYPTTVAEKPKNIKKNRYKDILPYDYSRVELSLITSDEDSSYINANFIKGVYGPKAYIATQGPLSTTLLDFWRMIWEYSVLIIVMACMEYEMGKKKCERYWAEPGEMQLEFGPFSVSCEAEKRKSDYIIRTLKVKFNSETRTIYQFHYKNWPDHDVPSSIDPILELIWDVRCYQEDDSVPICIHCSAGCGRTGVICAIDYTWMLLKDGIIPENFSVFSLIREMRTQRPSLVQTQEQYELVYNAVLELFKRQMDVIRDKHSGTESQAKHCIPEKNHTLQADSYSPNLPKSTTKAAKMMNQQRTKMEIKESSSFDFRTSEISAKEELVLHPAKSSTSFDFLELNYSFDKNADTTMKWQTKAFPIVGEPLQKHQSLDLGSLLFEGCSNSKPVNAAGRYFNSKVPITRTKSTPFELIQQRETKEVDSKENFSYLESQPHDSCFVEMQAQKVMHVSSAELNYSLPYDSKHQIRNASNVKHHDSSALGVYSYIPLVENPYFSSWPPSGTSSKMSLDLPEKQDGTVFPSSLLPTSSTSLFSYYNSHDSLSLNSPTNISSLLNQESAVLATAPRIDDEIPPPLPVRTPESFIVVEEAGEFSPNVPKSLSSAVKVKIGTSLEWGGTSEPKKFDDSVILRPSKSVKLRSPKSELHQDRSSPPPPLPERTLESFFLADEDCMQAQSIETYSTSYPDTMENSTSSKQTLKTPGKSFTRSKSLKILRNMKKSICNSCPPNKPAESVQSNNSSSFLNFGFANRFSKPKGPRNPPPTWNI

[3] = target: T2, Tyrosine-protein phosphatase non-receptor type 22; format: functional; remark: listed apart in the source
cells = format: functional
[4] = target: T3, Replicative DNA helicase DnaB (Mycobacterium tuberculosis, UniProt P9WMR3); test: DnaB intein splicing inhibitors, dose response, biochemical, cell-free fluorescence (AID 449749); format: functional
T3 sequence (P9WMR3 whole entry): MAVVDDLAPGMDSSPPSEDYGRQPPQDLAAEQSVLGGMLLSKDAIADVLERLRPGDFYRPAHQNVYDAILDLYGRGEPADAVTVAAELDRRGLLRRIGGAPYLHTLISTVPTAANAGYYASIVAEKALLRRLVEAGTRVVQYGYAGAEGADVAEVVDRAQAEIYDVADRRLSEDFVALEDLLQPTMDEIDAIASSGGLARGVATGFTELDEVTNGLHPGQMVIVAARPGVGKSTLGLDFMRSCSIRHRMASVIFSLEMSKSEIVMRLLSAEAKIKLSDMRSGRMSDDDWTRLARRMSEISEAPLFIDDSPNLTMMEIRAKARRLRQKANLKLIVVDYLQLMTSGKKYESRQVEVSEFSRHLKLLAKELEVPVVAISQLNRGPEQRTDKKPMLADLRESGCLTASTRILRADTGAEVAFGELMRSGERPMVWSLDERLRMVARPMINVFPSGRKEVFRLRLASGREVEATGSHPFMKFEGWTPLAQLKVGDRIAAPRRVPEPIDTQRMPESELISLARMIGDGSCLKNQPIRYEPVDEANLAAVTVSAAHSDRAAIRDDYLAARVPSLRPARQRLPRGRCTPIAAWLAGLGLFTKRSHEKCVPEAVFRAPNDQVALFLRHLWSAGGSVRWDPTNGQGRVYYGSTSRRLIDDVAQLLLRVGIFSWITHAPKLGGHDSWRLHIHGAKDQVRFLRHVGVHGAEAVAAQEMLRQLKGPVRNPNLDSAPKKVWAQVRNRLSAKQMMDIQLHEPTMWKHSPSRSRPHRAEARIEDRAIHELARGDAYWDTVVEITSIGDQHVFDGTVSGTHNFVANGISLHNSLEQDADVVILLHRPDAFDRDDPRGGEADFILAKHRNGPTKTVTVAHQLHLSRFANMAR

SUMO-activating enzyme [5] = target: T4, SUMO-activating enzyme (Homo sapiens, UniProt Q9UBT2); test: SUMOylation inhibitor hit validation, confirmation, SUMOylation inhibitor project, biochemical, AlphaScreen (AID 2018); format: functional
T4 sequence (Q9UBE0 whole entry): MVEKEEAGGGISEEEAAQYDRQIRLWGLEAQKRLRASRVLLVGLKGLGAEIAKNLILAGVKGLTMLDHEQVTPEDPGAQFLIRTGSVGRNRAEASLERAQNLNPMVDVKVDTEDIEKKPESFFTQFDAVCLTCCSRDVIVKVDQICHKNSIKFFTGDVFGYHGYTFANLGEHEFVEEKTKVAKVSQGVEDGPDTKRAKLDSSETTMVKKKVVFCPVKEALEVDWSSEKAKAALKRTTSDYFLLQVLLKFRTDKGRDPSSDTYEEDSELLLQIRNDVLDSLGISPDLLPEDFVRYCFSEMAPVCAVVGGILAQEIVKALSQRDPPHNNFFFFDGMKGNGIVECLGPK
T4 sequence (Q9UBT2 whole entry): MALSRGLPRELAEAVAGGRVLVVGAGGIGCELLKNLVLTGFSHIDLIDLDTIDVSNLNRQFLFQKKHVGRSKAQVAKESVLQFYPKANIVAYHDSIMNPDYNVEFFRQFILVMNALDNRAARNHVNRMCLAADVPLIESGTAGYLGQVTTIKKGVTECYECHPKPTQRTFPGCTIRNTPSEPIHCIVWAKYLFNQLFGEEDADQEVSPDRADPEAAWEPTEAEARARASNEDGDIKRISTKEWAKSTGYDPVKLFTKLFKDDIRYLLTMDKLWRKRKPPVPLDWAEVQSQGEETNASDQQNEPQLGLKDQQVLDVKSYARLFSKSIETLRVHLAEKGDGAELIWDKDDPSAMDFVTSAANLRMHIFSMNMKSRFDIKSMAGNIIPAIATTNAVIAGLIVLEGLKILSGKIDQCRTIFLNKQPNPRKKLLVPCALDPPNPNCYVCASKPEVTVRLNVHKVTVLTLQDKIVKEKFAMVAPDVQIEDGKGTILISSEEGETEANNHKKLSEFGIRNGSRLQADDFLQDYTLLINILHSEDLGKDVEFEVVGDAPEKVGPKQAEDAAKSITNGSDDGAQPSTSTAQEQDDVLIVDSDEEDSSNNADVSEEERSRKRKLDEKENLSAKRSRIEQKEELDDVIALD

Protein RecA = target: T5, Protein RecA (Mycobacterium tuberculosis, UniProt P9WHJ3); test: Fluorescence Cell-Free Homogeneous Dose Retest to Identify Inhibitors of RecA-Intein Splicing Activity. [Related pubchem assays (depositor defined):AID2097, AID2223, AID489010, AID492950]; format: functional
T5 sequence (P9WHJ3 whole entry): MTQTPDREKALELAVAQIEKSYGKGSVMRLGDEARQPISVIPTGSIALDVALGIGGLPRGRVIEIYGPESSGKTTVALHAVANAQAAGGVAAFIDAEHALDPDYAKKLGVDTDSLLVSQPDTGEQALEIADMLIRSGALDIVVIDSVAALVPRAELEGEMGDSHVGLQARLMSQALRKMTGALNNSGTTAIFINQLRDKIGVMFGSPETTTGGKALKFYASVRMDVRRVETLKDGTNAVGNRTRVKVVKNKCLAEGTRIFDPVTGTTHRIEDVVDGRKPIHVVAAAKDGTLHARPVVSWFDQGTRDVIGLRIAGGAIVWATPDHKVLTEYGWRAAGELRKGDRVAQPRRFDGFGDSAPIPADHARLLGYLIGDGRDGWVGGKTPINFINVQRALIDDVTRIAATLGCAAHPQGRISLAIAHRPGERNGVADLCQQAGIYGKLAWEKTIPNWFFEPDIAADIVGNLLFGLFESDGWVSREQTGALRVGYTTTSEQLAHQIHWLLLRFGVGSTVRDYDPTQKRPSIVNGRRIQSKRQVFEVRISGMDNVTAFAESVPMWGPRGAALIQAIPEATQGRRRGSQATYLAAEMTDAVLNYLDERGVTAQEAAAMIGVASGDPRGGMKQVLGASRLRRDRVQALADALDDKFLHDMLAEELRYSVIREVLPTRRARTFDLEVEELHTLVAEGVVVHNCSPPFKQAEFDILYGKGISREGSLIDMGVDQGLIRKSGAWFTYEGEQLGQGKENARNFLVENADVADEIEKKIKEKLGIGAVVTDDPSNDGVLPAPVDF

Genome polyprotein = Genome polyprotein (dengue virus type 2, UniProt P29990); test: Dengue-2 NS5 methyltransferase inhibitors, primary screen, biochemical, confirmation dose response (AID 588689); format: functional
Sequence of Genome polyprotein (P29990 2492-3391 limits assumed): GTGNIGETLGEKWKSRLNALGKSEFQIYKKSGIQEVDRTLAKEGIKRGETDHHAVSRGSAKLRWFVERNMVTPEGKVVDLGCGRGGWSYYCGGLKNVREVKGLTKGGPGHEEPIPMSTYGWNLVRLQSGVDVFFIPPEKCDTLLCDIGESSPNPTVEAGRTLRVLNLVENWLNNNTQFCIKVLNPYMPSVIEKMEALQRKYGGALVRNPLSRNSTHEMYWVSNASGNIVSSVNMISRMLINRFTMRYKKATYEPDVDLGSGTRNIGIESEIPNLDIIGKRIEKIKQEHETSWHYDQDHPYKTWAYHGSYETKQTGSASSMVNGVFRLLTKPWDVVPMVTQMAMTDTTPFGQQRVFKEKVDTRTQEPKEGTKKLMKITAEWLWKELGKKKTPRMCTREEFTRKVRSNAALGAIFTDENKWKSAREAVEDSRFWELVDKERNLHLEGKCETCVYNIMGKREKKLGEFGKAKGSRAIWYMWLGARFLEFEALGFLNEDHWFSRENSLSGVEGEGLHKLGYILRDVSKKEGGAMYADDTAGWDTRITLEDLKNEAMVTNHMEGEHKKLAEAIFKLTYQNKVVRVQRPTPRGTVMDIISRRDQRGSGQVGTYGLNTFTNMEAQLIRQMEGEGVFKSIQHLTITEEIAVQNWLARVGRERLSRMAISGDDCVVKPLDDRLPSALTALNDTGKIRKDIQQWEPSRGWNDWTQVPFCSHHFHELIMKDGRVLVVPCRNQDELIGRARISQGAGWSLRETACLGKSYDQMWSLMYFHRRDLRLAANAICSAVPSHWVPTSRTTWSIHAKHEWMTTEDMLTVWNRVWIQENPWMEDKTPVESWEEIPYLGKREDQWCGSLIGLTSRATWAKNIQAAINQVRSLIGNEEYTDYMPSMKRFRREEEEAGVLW

SUMO-activating enzyme [6] = target: T4, SUMO-activating enzyme; test: inhibitors of in vitro SUMOylation cascade, primary screen, biochemical, HTRF, uHTS (AID 2006); format: protein-complex assay
[7] = target: T6, Rac GTPase-activating protein 1 (Homo sapiens, UniProt Q9H0H5); test: MgcRacGAP GTPase-activating activity inhibitors, confirmation, biochemical, ADP Hunter fluorescence, primary and confirmatory (AID 624330); format: functional
T6 sequence (Q9H0H5 whole entry): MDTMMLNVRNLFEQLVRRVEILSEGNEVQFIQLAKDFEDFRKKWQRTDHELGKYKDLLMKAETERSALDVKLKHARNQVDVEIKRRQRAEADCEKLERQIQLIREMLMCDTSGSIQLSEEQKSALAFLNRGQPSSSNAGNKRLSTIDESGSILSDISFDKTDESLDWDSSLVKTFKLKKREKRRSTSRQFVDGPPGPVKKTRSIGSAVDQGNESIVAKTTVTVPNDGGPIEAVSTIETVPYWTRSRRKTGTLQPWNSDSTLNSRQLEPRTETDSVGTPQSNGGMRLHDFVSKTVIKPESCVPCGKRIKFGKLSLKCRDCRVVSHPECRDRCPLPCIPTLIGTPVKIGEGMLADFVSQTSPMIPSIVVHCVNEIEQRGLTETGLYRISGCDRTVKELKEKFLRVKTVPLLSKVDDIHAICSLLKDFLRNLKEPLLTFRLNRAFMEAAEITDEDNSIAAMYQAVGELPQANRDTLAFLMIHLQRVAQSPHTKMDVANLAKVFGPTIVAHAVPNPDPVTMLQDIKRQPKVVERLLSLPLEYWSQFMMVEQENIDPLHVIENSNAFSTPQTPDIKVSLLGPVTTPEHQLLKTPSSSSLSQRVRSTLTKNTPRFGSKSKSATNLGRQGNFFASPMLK

A-375 = test: MITF: Counter assay: A375 proliferation Measured in Cell-Based System Using Plate Reader - 2084-03_Inhibitor_Dose_DryPowder_Activity. [Related pubchem assays (depositor defined):AID488944]; format: functional; settings: Homo sapiens
[8] = target: T7, Microphthalmia-associated transcription factor (Homo sapiens, UniProt O75030); test: TRPM1 promoter luciferase signal decrease, dose response, MITF inhibitor project, cell-based, SK-MEL-5, cherry-picked, set 3 (AID 493073); format: functional
T7 sequence (O75030 whole entry): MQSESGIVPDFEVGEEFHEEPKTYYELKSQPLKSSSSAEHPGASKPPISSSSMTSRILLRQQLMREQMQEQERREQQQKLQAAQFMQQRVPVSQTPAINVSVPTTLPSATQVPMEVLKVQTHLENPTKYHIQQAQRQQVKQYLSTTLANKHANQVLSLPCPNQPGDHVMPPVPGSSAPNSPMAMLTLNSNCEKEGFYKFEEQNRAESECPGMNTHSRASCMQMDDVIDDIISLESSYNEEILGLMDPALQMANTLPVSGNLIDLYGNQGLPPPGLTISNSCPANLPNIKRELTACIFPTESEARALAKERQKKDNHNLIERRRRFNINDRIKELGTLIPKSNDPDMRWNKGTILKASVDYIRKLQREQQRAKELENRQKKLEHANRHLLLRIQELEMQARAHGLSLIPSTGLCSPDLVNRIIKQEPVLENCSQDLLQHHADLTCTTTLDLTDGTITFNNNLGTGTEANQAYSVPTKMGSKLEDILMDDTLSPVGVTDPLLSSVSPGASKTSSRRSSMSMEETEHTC

[9] = target: Glucose-6-phosphate 1-dehydrogenase (Homo sapiens, UniProt P11413); test: human G6PD enzyme inhibitors, dose response, selectivity assay for P. falciparum G6PD inhibitor project, biochemical, fluorescence (AID 504792); format: functional
Sequence of Glucose-6-phosphate 1-dehydrogenase (P11413 whole entry): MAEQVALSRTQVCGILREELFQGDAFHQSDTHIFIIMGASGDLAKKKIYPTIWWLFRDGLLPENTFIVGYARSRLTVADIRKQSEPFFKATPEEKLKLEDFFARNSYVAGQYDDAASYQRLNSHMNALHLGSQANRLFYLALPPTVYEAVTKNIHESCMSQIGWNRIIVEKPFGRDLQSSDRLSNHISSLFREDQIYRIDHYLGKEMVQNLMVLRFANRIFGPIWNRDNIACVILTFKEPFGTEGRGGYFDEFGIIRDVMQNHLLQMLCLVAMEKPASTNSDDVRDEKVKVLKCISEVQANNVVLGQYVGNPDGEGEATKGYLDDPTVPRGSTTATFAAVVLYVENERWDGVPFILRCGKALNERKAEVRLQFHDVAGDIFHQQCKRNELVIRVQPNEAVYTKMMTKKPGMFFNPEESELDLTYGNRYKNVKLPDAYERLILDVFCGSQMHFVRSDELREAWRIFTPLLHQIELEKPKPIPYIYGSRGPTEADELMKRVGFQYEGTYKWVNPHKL

[10] = target: T8, Corticotropin-releasing factor receptor 2/Corticotropin-releasing factor-binding protein (Homo sapiens, UniProt P24387+Q13324); test: activators of CRF receptor 2 with binding protein – uHTS hits, confirmation (AID 602473); format: functional; settings: read-out: EC50_Mean
T8 sequence (Q13324 whole entry): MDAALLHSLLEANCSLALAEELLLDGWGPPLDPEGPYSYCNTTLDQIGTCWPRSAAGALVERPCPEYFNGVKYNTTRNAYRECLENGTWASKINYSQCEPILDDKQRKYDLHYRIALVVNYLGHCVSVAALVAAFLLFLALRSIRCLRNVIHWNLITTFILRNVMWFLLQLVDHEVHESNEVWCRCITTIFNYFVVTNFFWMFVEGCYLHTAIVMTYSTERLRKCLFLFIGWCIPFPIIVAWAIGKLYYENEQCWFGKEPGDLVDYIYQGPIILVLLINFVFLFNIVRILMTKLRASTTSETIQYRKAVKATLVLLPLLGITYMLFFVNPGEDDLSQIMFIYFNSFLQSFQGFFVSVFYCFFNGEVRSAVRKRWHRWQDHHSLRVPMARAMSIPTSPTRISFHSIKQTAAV
T8 sequence (P24387 whole entry): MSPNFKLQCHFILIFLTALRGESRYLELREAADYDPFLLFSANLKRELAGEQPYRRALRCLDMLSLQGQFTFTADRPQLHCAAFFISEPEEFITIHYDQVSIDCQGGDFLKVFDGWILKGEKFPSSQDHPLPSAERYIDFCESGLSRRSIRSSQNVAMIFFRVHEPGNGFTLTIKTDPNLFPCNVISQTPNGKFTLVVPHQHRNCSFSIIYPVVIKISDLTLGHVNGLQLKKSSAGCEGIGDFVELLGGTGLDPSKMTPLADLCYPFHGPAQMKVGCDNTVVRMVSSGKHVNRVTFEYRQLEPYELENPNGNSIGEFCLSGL

Which IC50 [1] does the source give for CCOc1ccccc1NC(=O)CSc1nnc(Cc2cccn2C)n1-c1ccc(F)cc1 here?
Its IC50 is > 79.4 µM (inactive).

What about the IC50 [2] of the same compound?
The IC50 was > 79.4 µM (inactive).

And the IC50 [3]?
Its IC50 is > 79.4 µM (inactive).

What does the source list for CC1=NN(c2ccc(C(=O)O)cc2)C(=O)/C1=C\c1ccc(OC(=O)c2cccs2)cc1?
IC50 (cells): 15.1 µM (active); AC50 [4]: 2.08 µM (active); IC50 (SUMO-activating enzyme [5]): 7.86 µM (active); EC50 (Protein RecA): 1.9 µM (active); IC50 (Genome polyprotein): 15.6 µM (active); IC50 (SUMO-activating enzyme [6]): 57.7 µM (active); IC50 [7]: 185 µM (active)

Which results are given for CN(C)c1ccc(/C=C(\C#N)c2ccccn2)cc1?
AC50 (A-375): 45.2 µM (active); AC50 [8]: 6.32 µM (active)

For N#Cc1ccc(N=c2ssnc2Cl)cc1, which IC50 [9] is on record?
The IC50 was 48.3 µM (inactive).

Which results are given for CCOC(=O)/C=c1/s/c(=C/c2ccc3cc(OC)ccc3c2)c(=O)n1CC(=O)NCC1CCCO1 (stereo unspecified)?
EC50 [10]: 7.75 µM (active); AC50 (A-375): 29.7 µM (active); AC50 [8]: 6.79 µM (active)

— ChEMBL document CHEMBL1201862, “PubChem BioAssay data set” (2004)
